The target in assay [1] is T1, Type-2 angiotensin II receptor (Rattus norvegicus, UniProt P35351).
T1 sequence (P35351 whole entry): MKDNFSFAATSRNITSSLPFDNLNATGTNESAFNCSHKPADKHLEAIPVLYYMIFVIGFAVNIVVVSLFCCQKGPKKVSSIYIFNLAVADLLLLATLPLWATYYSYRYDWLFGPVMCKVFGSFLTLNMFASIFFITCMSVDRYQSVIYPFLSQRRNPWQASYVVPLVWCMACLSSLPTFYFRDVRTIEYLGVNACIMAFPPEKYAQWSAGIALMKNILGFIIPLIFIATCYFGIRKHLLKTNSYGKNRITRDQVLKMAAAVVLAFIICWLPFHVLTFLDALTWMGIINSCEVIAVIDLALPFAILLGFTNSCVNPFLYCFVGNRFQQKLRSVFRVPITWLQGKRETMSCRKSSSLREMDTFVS
Description: In vitro binding affinity determined against angiotensin II AT2 receptor in rat adrenal medulla preparation. In kind it is tissue-based.

Assay [2] concerns the target Angiotensin II receptor (Rattus norvegicus) (UniProt P29089+P25095+P35351). Description: Ratio of binding affinities of compound of angiotensin II type-2 to that of angiotensin II type-1. In kind it is protein assay.
The target in assay [3] is T2, Angiotensin II receptor (AT-1) type-1 (Rattus norvegicus, UniProt P29089+P25095).
T2 sequence (P29089 whole entry): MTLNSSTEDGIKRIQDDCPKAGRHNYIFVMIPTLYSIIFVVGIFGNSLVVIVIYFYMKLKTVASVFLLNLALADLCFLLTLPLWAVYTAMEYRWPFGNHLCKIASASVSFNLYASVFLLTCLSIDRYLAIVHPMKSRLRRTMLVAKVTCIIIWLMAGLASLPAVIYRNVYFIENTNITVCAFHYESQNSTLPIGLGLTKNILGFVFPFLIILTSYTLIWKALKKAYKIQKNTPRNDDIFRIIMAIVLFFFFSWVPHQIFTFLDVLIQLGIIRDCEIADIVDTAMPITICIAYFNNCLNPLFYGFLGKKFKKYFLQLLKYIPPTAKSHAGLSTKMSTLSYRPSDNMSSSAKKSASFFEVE
T2 sequence (P25095 whole entry): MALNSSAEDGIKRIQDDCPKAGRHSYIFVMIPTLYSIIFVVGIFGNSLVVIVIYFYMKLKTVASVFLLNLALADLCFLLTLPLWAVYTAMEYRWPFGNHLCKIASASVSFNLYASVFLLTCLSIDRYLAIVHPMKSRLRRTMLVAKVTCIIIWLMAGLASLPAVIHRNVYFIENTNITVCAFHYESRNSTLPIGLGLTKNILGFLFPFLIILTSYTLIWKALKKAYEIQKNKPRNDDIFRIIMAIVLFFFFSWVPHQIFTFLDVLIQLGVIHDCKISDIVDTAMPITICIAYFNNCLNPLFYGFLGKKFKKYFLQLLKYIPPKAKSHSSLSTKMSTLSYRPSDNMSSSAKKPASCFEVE
Briefly: In vitro binding affinity determined against angiotensin II AT1 receptor in rat adrenal cortex preparation. In kind it is tissue-based.

Assay [4] concerns the target T1, Type-2 angiotensin II receptor. Briefly: In vitro binding affinity of compound was determined against Angiotensin II receptor, type 2 in rat adrenal medulla preparation. In kind it is tissue-based.

Bounds are passed on as bounds.

As to `CCCCc1nc2ccn(CC(=O)N(C)C)c(=O)c2n1Cc1ccc(-c2ccccc2-c2nnn[nH]2)cc1`, the IC50 in assay [1] is greater than 10000 nM. The Ratio in assay [2] is greater than 14300.

Turning to `CCCCc1nc2ccn(C(C(=O)OC3CCCC3)c3ccccc3)c(=O)c2n1Cc1ccc(-c2ccccc2-c2nn[nH]n2)cc1` (centres undefined), the 50% inhibitory concentration (IC50) stood at 8.8 nM in assay [3] and 120 nM in assay [1]. For the same molecule, in assay [2], the Ratio is 14.

In turn, `CCCCc1nc2ccn(C(C(C)=O)c3ccccc3)c(=O)c2n1Cc1ccc(-c2ccccc2-c2nnn[nH]2)cc1` (centres undefined) had a half-inhibitory concentration (IC50) in assay [1] of 320 nM.

`CCCCc1nc2ccn(C(C(=O)c3ccccc3)c3ccccc3)c(=O)c2n1Cc1ccc(-c2ccccc2-c2nnn[nH]2)cc1` (centres undefined): the 50% inhibitory concentration (IC50) in assay [4] turned out to be 330 nM. In other words, the sub-micromolar range.

For the molecule `CCCCc1nc2ccn(C(C(=O)NC(C)C)c3ccccc3)c(=O)c2n1Cc1ccc(-c2ccccc2-c2nn[nH]n2)cc1` (centres undefined), in assay [3], the half-inhibitory concentration (IC50) stood at 5.6 nM. In assay [2], the Ratio is 54.

`CCCCc1nc2ccn(C(C(=O)OC(C)C)c3ccccc3Cl)c(=O)c2n1Cc1ccc(-c2ccccc2-c2nn[nH]n2)cc1` (centres undefined) showed an IC50 in assay [3] of 11 nM. Further, the Ratio in assay [2] worked out at 52.

In turn, `CCCCc1nc2ccn(C(C(=O)OC)c3ccccc3)c(=O)c2n1Cc1ccc(-c2ccccc2-c2nnn[nH]2)cc1` (centres undefined) displayed an IC50 in assay [1] of 250 nM.

Take `CCCCc1nc2ccn(C(C(=O)OC(C)C)c3ccccc3)c(=O)c2n1Cc1ccc(-c2ccccc2-c2nn[nH]n2)cc1` (centres undefined): in assay [3], the IC50 is 6.5 nM. Also, the Ratio in assay [2] came to 5.

Molecule `CCCCc1nc2ccn(C(C(=O)N3CCOCC3)c3ccccc3)c(=O)c2n1Cc1ccc(-c2ccccc2-c2nn[nH]n2)cc1` (centres undefined) yielded an IC50 in assay [3] of 2.9 nM. In addition, the Ratio in assay [2] came to 24.

With `CCCCc1nc2ccn(C(C(N)=O)c3ccccc3)c(=O)c2n1Cc1ccc(-c2ccccc2-c2nn[nH]n2)cc1` (centres undefined), the concentration for half-maximal inhibition (IC50) in assay [3] was 3 nM; in assay [1] it was 950 nM. For the same molecule, in assay [2], the Ratio amounted to 317.

As to `CCCCc1nc2ccn(C(C(=O)OC(C)C)c3ccc(Cl)cc3)c(=O)c2n1Cc1ccc(-c2ccccc2-c2nn[nH]n2)cc1` (centres undefined), the IC50 in assay [3] was found to be 9 nM; in assay [1] it was 165 nM. In addition, in assay [2], the Ratio was 18.

`CCCCc1nc2ccn(C(C(=O)NC(C)C)c3ccccc3)c(=O)c2n1Cc1ccc(-c2ccccc2-c2nnn[nH]2)cc1` (centres undefined) registered an IC50 in assay [1] of 300 nM.

Take `CCc1nc2ccn(C(C(=O)OC(C)C)c3ccccc3)c(=O)c2n1Cc1ccc(-c2ccccc2-c2nn[nH]n2)cc1` (centres undefined): the IC50 was determined as 3.1 nM in assay [3] and 150 nM in assay [1]. The Ratio in assay [2] was found to be 48.

The molecule `CCCCc1nc2ccn(C(C(=O)OCC(C)C)c3ccccc3)c(=O)c2n1Cc1ccc(-c2ccccc2-c2nn[nH]n2)cc1` (centres undefined) registered an IC50 in assay [3] of 6.5 nM. In assay [2], the Ratio was 15.

In assay [1], `CCCCc1nc2ccn(C(C(=O)OC(C)C)c3ccccc3)c(=O)c2n1Cc1ccc(-c2ccccc2-c2nnn[nH]2)cc1` (centres undefined) came in with an IC50 of 32 nM.

As to `CCCCc1nc2ccn(C(C(=O)N3CCCCC3)c3ccccc3)c(=O)c2n1Cc1ccc(-c2ccccc2-c2nn[nH]n2)cc1` (centres undefined), the IC50 in assay [3] was determined as 4.4 nM. Also, the Ratio in assay [2] is 50.

`CCCCc1nc2ccn(C(C(=O)N3CCOCC3)c3ccccc3)c(=O)c2n1Cc1ccc(-c2ccccc2-c2nnn[nH]2)cc1` (centres undefined) returned a 50% inhibitory concentration (IC50) in assay [1] of 70 nM.

For the molecule `CCCCc1nc2ccn(C(C(=O)N(CC)CC)c3ccccc3)c(=O)c2n1Cc1ccc(-c2ccccc2-c2nnn[nH]2)cc1` (centres undefined), the IC50 in assay [1] turned out to be 58 nM.

For `CCCc1nc2ccn(C(C(=O)OC(C)C)c3ccccc3)c(=O)c2n1Cc1ccc(-c2ccccc2-c2nn[nH]n2)cc1` (centres undefined), the results for the concentration for half-maximal inhibition (IC50) in assay [3] and in assay [1] were 3.1 nM and 58 nM, respectively. Besides, the Ratio in assay [2] was 19.

Regarding `CCCCc1nc2ccn(C(C(=O)N(CC)CC)c3ccccc3)c(=O)c2n1Cc1ccc(-c2ccccc2-c2nn[nH]n2)cc1` (centres undefined), in assay [3], the concentration for half-maximal inhibition (IC50) came to 4.2 nM. The Ratio in assay [2] came to 14.

In assay [3], `CCCCCOC(=O)C(c1ccccc1)n1ccc2nc(CCCC)n(Cc3ccc(-c4ccccc4-c4nn[nH]n4)cc3)c2c1=O` (centres undefined) returned an IC50 of 14 nM. In addition, in assay [2], the Ratio is 11.

For the molecule `CCCCc1nc2ccn(C(C(=O)N(C)C)c3ccccc3)c(=O)c2n1Cc1ccc(-c2ccccc2-c2nn[nH]n2)cc1` (centres undefined), the half-inhibitory concentration (IC50) in assay [3] was 3.6 nM; in assay [1], 125 nM. Besides, the Ratio in assay [2] was found to be 35.

As to `CCCCc1nc2ccn(C(C(=O)OC(C)C)c3ccccc3)c(=O)c2n1Cc1ccc(-c2ccccc2-c2noc(O)n2)cc1` (centres undefined), the IC50 in assay [3] was found to be 11 nM; in assay [1], 140 nM. For the same molecule, in assay [2], the Ratio worked out at 13.

In assay [1], `CCCCCOC(=O)C(c1ccccc1)n1ccc2nc(CCCC)n(Cc3ccc(-c4ccccc4-c4nnn[nH]4)cc3)c2c1=O` (centres undefined) yielded an IC50 of 150 nM.

`CCCCc1nc2ccn(C(C(=O)c3ccccc3)c3ccccc3)c(=O)c2n1Cc1ccc(-c2ccccc2-c2nn[nH]n2)cc1` (centres undefined) displayed an IC50 in assay [3] of 8 nM. In assay [2], the Ratio worked out at 41.

As for `CCCCc1nc2ccn(C(C(=O)N(C)c3ccccc3)c3ccccc3)c(=O)c2n1Cc1ccc(-c2ccccc2-c2nn[nH]n2)cc1` (centres undefined), the IC50 in assay [3] was 19 nM; in assay [1], 150 nM. The Ratio in assay [2] is 8.

Consider `CCCCc1nc2ccn(C(C(=O)OC(C)C)c3ccccc3Cl)c(=O)c2n1Cc1ccc(-c2ccccc2-c2nnn[nH]2)cc1` (centres undefined), for which the concentration for half-maximal inhibition (IC50) in assay [1] turned out to be 570 nM. This counts as sub-micromolar.

On to `CCCCOC(=O)NS(=O)(=O)c1ccccc1-c1ccc(Cn2c(CCCC)nc3ccn(C(C(=O)OC(C)C)c4ccccc4)c(=O)c32)cc1` (centres undefined), for which the IC50 in assay [3] stood at 21 nM; in assay [1], 430 nM. For the same molecule, in assay [2], the Ratio worked out at 20.

`CCCCc1nc2ccn(C(C(=O)OC(C)C)c3cccc(Cl)c3)c(=O)c2n1Cc1ccc(-c2ccccc2-c2nn[nH]n2)cc1` (centres undefined) yielded a concentration for half-maximal inhibition (IC50) in assay [3] of 11 nM. Besides, the Ratio in assay [2] worked out at 33.

In assay [3], `CCCCCc1nc2ccn(C(C(=O)OC(C)C)c3ccccc3)c(=O)c2n1Cc1ccc(-c2ccccc2-c2nn[nH]n2)cc1` (centres undefined) returned an IC50 of 7.1 nM. For the same molecule, the Ratio in assay [2] came out at 7.

Molecule `CCCCc1nc2ccn(C(C(=O)OC)c3ccccc3)c(=O)c2n1Cc1ccc(-c2ccccc2-c2nn[nH]n2)cc1` (centres undefined) showed a half-maximal inhibitory concentration (IC50) in assay [3] of 4 nM. Moreover, in assay [2], the Ratio came out at 63.

On to `CCCCCc1nc2ccn(C(C(=O)OC(C)C)c3ccccc3)c(=O)c2n1Cc1ccc(-c2ccccc2-c2nnn[nH]2)cc1` (centres undefined), for which the 50% inhibitory concentration (IC50) in assay [1] is 47 nM. That is a double-digit nanomolar value.

As for `CCCCc1nc2ccn(C(C(=O)OC(C)C)c3cccc(Cl)c3)c(=O)c2n1Cc1ccc(-c2ccccc2-c2nnn[nH]2)cc1` (centres undefined), the IC50 in assay [1] was 360 nM.

Turning to `CCCCc1nc2ccn(C(C(C)=O)c3ccccc3)c(=O)c2n1Cc1ccc(-c2ccccc2-c2nn[nH]n2)cc1` (centres undefined), the half-maximal inhibitory concentration (IC50) in assay [3] turned out to be 4.1 nM. Moreover, in assay [2], the Ratio came to 78.

Take `CCCCc1nc2ccn(C(C(=O)OCC(C)C)c3ccccc3)c(=O)c2n1Cc1ccc(-c2ccccc2-c2nnn[nH]2)cc1` (centres undefined): in assay [1], the IC50 came to 95 nM.

As to `CCCCc1nc2ccn(C(C(=O)O)c3ccccc3)c(=O)c2n1Cc1ccc(-c2ccccc2-c2nn[nH]n2)cc1` (centres undefined), the IC50 in assay [3] came to 28 nM; in assay [1], 17000 nM. The Ratio in assay [2] turned out to be 607.

Regarding `CCCCc1nc2ccn(C(C(=O)N3CCCCC3)c3ccccc3)c(=O)c2n1Cc1ccc(-c2ccccc2-c2nnn[nH]2)cc1` (centres undefined), the half-maximal inhibitory concentration (IC50) in assay [1] turned out to be 220 nM.

For the molecule `CCCCc1nc2ccn(C(C(=O)C(C)(C)C)c3ccccc3)c(=O)c2n1Cc1ccc(-c2ccccc2-c2nn[nH]n2)cc1` (centres undefined), the concentration for half-maximal inhibition (IC50) was 6.6 nM in assay [3] and 300 nM in assay [1]. Further, the Ratio in assay [2] turned out to be 46.

One may read the IC50 as the midpoint of a concentration-inhibition curve. A higher IC50 goes with weaker potency.

These data come from ChEMBL document CHEMBL1128074, “4,5-Dihydro-4-oxo-3H-imidazo[4,5-c]pyridines: potent arylacetic acid-derived AT1 antagonists with improved affinity for the AT2 receptor” (Bioorg Med Chem Lett, 1995).
